Experimental data as given in US5700445A, “N-methyl piperazine compounds having dopamine receptor affinity” (Allelix Biopharmaceuticals, Inc., priority 1994, dated 1997).

How the values were obtained:
[1] = target: T1, human D4 receptor (D4.2 sub-type) (Homo sapiens, UniProt P21917, DEL265-296); experiment: D4 receptor binding assay (displacement of 3H-spiperone); settings: 3H-spiperone 0.25 nM, cell membranes, Cheng and Prustoff, read-out: D4 AFFINITY Ki
T1 construct: expressed in transfected cells; host or cells: HEK 298 (human embryonic kidney) cells, stably transfected
T1 sequence (P21917 with tags, fused parts or gaps DEL265-296): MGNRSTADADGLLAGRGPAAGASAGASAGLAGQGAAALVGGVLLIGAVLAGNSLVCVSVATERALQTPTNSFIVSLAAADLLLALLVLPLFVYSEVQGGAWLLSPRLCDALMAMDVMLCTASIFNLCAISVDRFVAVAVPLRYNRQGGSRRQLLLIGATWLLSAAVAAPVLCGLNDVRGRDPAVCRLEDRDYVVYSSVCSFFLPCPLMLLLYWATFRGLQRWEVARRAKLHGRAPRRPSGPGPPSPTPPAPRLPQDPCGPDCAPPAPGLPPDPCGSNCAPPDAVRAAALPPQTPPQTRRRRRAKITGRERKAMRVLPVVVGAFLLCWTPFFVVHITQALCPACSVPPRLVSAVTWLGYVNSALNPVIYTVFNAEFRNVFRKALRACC
Procedure: (§1) The potency of the test compound to reduce ^3 H-spiperone binding directly correlated to its binding affinity for the receptor.
The cells were then centrifuged in a Sorval centrifuge for 10 min, 5000 rpm (GS3 rotor) and the pellets quickly frozen in liquid nitrogen and stored at -80° C. until used in binding assay. When used in the assay, cells were thawed on ice for 20 min and then 10 ml of incubation buffer (50 mM Tris, 1 mM EDTA, 4 mM MgCl2, 5 mM KCl, 1.5 mM CaCl2, 120 mM NaCl, pH 7.4) was added. […] Concentration of receptor protein was determined using the Pierce BCA assay.
(§2) The tubes were vortexed and incubated at room temperature for 90 minutes. The binding reaction was stopped by filtering using a Brandell Cell Harvester. The samples were filtered under vacuum over glass fibre filters (Whatman GF/B) presoaked for 2 hours in 0.3% polyethylenimine (PEI) in 50 mM Tris buffer (pH 7.4). The filters were then washed 3 times with 5 ml ice cold 50 mM Tris buffer (pH 7.4). Individual filter disks were put in scintillation vials (Biovials, Bechman). Ready Protein Plus liquid scintillant (5 ml, Beckman) was added and the vials counted by liquid scintillation spectrophotometry (Beckman LSC 6500) after equilibrating for three hours at room temperature to determine total binding (BT).
The tubes were vortexed and incubated at room temperature for 90 minutes at which time the binding reaction was stopped by filtering. The filters were washed and counted using the same procedure as in the total binding assay described above to give the non-specific binding value (NSB).
(§3) The tubes were vortexed and incubated at room temperature for 90 minutes at which time the binding reaction was stopped by filtering. The filters were washed and counted using the same procedure as in the total binding assay described above to give the displacement binding value (BD).
(§4) IC50 was determined from an inhibition response curve, logit-log plot of %B/B0 vs concentration of test compound. Ki was calculated by the Cheng and Prustoff transformation: […]

[2] = target: T2, human D2 receptor (short isoform) (Homo sapiens, UniProt P14416); experiment: D2 receptor binding assay (displacement of 3H-spiperone), reported as D2/D4 selectivity; settings: ratio D2/D4; 3H-spiperone 0.25 nM; D2 short isoform vs D4.2
T2 construct: 3H-spiperone displacement
T2 sequence (P14416 with tags, fused parts or gaps DEL242-270): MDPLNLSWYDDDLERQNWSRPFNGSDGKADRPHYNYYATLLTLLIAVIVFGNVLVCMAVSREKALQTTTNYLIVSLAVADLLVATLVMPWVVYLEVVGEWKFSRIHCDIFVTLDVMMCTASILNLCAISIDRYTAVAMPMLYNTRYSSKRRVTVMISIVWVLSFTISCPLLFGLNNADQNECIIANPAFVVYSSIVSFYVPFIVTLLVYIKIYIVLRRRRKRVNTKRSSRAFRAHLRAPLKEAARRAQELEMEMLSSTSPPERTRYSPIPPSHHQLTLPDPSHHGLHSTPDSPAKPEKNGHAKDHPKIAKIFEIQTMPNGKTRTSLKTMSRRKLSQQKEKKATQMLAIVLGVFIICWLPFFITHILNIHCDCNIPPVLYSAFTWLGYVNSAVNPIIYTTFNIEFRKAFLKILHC
Procedure: as §1
CH4 C1 (rat pituitary) cells stably transfected with the human D2 receptor (short isoform) were grown in CO2 independent media in roller bottles (1500 cm^2) for 10 days. 100 μM ZnSO4 was added to the cells (the D2 promoter being zinc inducible). After 16 hours, fresh media was added to allow the cells to recover for 24 hours. The cells were harvested using versine and then centrifuged in a Sorval centrifuge for 10 minutes, at 5000 rpm (GS3 rotor). Pellets were quickly frozen in liquid nitrogen and stored at -80° C. until used in the binding assays. When used in the assay, cells were thawed on ice for 20 minutes. […] The receptor protein concentration was determined using the Pierce BCA assay.
as §2
This assay employed the same procedures as the non-specific binding assay for D4 with the exception that 2 μM (final conc.) of (-) sulpiride (Research Chemicals Inc.) was used in place of dopamine.
as §3, §4
where [L] is the concentration of ^3 H-spiperone used in the assay and KD is the dissociation constant of ^3 H-spiperone determined independently under the same binding conditions.

D4 receptor = settings: background, marketed products; read-out: D4 affinity, Ki; cited from earlier work
human D4 receptors [3] = target: T3, human D4 receptors (Homo sapiens, UniProt P21917); experiment: Functional agonist assay: decrease in forskolin-stimulated cAMP in D4 stably expressing CHO cells; type: cell-based; settings: forskolin 10 μM
T3 construct: expressed in transfected cells; host or cells: CHO Pro 5 cells, stably expressing
T3 sequence (P21917 1-419): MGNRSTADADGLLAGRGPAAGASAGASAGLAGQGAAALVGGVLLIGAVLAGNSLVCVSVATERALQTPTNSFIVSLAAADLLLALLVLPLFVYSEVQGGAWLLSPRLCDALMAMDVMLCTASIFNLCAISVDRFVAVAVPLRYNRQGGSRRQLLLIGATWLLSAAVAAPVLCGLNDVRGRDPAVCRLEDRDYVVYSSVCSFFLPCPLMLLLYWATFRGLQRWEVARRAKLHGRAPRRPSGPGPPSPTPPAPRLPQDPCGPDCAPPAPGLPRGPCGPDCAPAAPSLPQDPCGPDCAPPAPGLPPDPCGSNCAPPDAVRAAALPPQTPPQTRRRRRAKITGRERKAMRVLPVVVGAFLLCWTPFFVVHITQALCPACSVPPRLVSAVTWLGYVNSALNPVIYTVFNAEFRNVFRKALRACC
Procedure: The D4 receptor responds to dopamine and other agonists by reducing adenyl cyclase mediated production of cyclic AMP. Particular test compound 4-chloro-5H-dibenzo[b,e][1,4]diazepine was assayed for its ability to reverse dopamine inhibition of adenyl cyclase by the following procedure. Forskolin was used to elevate the basal adenyl cyclase activity.
(§5) CHO Pro 5 cells stably expressing human D4 receptors were plated in 6 well plates in DMEM (Dulbecco's Modified Eagle Medium)/F12(Nutrient Mixture F12 (Ham)) media with 10% FCS (fetal calf serum) and G418 (Geneticen Disulfate), and incubated at 37° C. in a CO2 incubator. The cells were allowed to grow to about 70% confluence before use in the assay.
To D4 stably expressing CHO cells prepared as previously described were added test compound and forskolin (10 μM final concentration). The cells were incubated, extracted and measured for cAMP concentration as above. Agonist activity of a test compound would result in a decrease in cAMP concentration compared to cells treated with forskolin (Cf) only.

human D4 receptors [4] = target: T3, human D4 receptors; experiment: Functional antagonist assay: reversal of dopamine inhibition of forskolin-stimulated adenyl cyclase (cAMP) in CHO Pro 5 cells; type: cell-based; settings: dopamine and forskolin both 10 μM, read-out: % REVERSAL OF DOPAMINE EFFECT
Procedure: The D4 receptor responds to dopamine and other agonists by reducing adenyl cyclase mediated production of cyclic AMP. […] Forskolin was used to elevate the basal adenyl cyclase activity.
as §5
Basal adenyl cyclase activity was determined from wells with only SFM+IBMX media added.
The cells were then incubated at 37° C. for 30 minutes in a CO2 incubator. Following incubation the media was aspirated from each well and then washed once with 2 mL of PBS (phosphate buffered saline). […] The cells from each well were then scraped and transferred into individual Eppendorf tubes. […]
Total inhibition (I0) of forskolin-stimulated adenyl cyclase activity by dopamine was determined as the difference in concentration of cAMP in the forskolin-treated cells (Cf) and dopamine-forskolin treated cells (Cd).
Net inhibition (I) of forskolin-stimulated adenyl cyclase activity by dopamine in the presence of an antagonist was determined as the difference in concentration of cAMP in the forskolin-treated cells (Cf) and test compound, dopamine and forskolin treated cells (C).

SMILES	Ki [1]	SELECTIVITY FOR D4, D2/D4 [2]	other results
CN1CCN(C2=Cc3cc(C#N)ccc3Sc3ccccc32)CC1 [2-cyano-10-(4-methyl-piperazinyl)-dibenzo[b,f]thiepine]	4.5 nM	21.4	–
CN1CCN(C2=Nc3cc(Cl)c(Cl)cc3Nc3c(Cl)cccc32)CC1 [4,7,8-trichloro-11-(4-methyl-1-piperazinyl)-5H-dibenzo[b,e][1,4]diazepine]	–	18.8	–
CN1CCN(C2=Nc3cc(Cl)ccc3Oc3ccccc32)CC1 [isoloxapine]	–	–	Ki (D4 receptor): ~20 nM
CN1CCN(C2=Nc3ccccc3Oc3c2cccc3[N+](=O)[O-])CC1 [4-nitro-11-(4-methyl-1-piperazinyl)dibenz[b,f][1,4]oxazepine]	–	21.4	–
CN1CCN(C2=Nc3ccccc3Oc3c(C#N)cccc32)CC1 [4-cyano-11-(4-methyl-1-piperazinyl)dibenz[b,f][1,4]oxazepine]	–	64.4	–
CN1CCN(C2=Nc3cc(Cl)c(Cl)cc3Nc3ccc(Cl)cc32)CC1 [2,7,8-trichloro-11-(4-methyl-1-piperazinyl)-5H-dibenzo[b,e][1,4]diazepine]	–	10.7	–

Further lines, with some results ahead:

Ki [1]	SELECTIVITY FOR D4, D2/D4 [2]	SMILES	other results
–	10.6	Cc1cc2c(cc1C)Nc1ccccc1C(N1CCN(C)CC1)=N2 [7,8-dimethyl-11-(4-methyl-1-piperazinyl)-5H-dibenzo[b,e][1,4]diazepine]	–
16.7 nM	187.5	CN1CCN(C2=Nc3ccccc3Nc3c(Cl)cccc32)CC1 [4-Chloro-11-(4-methyl-1-piperazinyl)-5H-dibenzo[b,e][1,4]diazepine]	dopamine agonist activity (decrease in cAMP compared to cells treated with forskolin) (human D4 receptors [3]): no dopamine agonist activity; inhibition at 1 µM (human D4 receptors [4]; 1 μM test compound): 16%; inhibition at 10 µM (human D4 receptors [4]; 10 μM test compound): 58%
14.2 nM	–	CN1CCN(C2=Nc3ccccc3Nc3ccc(C(F)(F)F)cc32)CC1 [2-trifluoromethyl-11-(4-methyl-1-piperazinyl)-5H-dibenzo[b,e][1,4]diazepine]	–
–	12.6	CN1CCN(C2=Nc3ccccc3Nc3cccc(F)c32)CC1 [1-fluoro-11-(4-methyl-1-piperazinyl)-5H-dibenz[b,e][1,4]diazepine]	–
